Test results from patent US9102622B2 (University of Connecticut, priority 2006, dated 2015).

How the values were obtained:
[1] = molecular target: fatty acid amide hydrolase (FAAH) (Rattus norvegicus (Rat), UniProt P97612); test: FAAH enzyme assay: inhibition of anandamide (AEA) hydrolysis, arachidonic acid quantified by HPLC; format: biochemical; conditions: for IC50 / Ki: eight-point assay; for IC50: anandamide hydrolysis by FAAH, read-out: IC50; for Ki: calculated with Prizm software, read-out: Ki; for inhibition at 100 µM: one-point assay, inhibitor 100 μM, partially purified rat brain FAAH, 15 min, read-out: % Inhibition (Concentration)
Method: The resulting supernatant is injected onto the HPLC.

Chain of fatty acid amide hydrolase (FAAH) (P97612 whole entry): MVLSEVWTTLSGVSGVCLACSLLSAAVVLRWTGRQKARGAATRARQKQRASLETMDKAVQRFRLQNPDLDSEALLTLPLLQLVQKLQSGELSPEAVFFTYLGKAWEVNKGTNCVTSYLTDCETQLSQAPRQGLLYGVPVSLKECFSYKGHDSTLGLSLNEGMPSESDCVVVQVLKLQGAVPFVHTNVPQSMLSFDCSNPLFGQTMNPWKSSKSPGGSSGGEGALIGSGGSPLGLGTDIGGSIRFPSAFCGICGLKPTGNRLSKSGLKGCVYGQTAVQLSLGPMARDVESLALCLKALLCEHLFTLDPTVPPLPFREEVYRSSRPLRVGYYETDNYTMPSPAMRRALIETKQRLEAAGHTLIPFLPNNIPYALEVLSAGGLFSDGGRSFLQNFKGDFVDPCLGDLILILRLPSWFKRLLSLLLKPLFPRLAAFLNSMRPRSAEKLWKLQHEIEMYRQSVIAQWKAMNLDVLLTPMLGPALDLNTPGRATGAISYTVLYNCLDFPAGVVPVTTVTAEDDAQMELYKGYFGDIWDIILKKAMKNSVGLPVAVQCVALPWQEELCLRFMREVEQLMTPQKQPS

Row | SMILES | IC50 [1] [nM] | Ki [1] [nM] | inhibition at 100 µM [1] [%] | melting point [°C]
1 | O=C(CCCCCCOc1ccc(O)cc1)C(F)(F)F [Compound 24.4, 1,1,1-Trifluoro-8-[4-(hydroxy)phenoxy]-2-octanone] | 760 | 54 | 89 | 61 to 62
2 | O=C(CCCCOc1ccccc1O)C(F)(F)F [Compound 24.9, 1,1,1-Trifluoro-6-[2-(hydroxy)phenoxy]-2-hexanone] | 23900 | 1600 | 60 | 51 to 52
3 | Cc1nnc(C(=O)c2cccc(-c3cccc(OCc4ccccc4)c3)c2)o1 [Compound 78, 1-(3′-Benzyloxy-1,1′-biphenyl-3-yl)-1-(5-methyl-1,3,4-oxadiazol-2-yl)-ketone] |  |  | 56 | 97 to 99
